This note sets out measurements from patent publication US12570655B2, “Cysteine covalent modifiers of AKT1 and uses thereof” (Terremoto Biosciences, Inc., priority 2023, dated 2026).

What all share (type): cell-based
The target of experiment [1] is T1, AKT1 E17K (Homo sapiens, UniProt P31749, E17K).
T1 construct: expressed in transfected cells; host or cells: HEK293
Description: Live cell AKT1 E17K target engagement by NanoBRET competitive probe displacement. To be noted: HEK293 cells transfected with kinase-NanoLuciferase fusion, 2 h at 37° C. In short, it runs like this:
(§1)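 HEK293 cells transiently expressing kinase–NanoLuciferase fusions (overnight transfection) were treated with serial compound dilutions plus fluorescent ATP-competitive tracer at ~EC50 concentration for 2 h at 37 °C. BRET ratio E600/E460 measured after substrate and extracellular luciferase inhibitor addition; IC50 from log(inhibitor)–response Hill fit.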
A general note: Bioluminescence resonance energy transfer reports proximity on the nanometre scale.

The target in experiment [2] is T2, AKT2 (Homo sapiens, UniProt P31751).
T2 construct: expressed in transfected cells; host or cells: HEK293
T2 sequence (P31751 whole entry): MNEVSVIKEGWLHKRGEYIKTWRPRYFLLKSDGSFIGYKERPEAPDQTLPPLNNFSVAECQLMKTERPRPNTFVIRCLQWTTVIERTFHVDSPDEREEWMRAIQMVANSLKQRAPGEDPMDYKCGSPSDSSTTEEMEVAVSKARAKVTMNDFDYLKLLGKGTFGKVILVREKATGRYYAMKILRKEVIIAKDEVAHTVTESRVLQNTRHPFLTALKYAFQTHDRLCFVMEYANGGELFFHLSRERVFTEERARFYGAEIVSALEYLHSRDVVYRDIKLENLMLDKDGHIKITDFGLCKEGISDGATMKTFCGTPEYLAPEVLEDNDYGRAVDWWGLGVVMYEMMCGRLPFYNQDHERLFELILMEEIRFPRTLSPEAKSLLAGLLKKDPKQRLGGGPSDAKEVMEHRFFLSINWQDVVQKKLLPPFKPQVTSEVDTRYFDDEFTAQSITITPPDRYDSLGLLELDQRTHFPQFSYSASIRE
Description: Live cell AKT2 target engagement by NanoBRET competitive probe displacement. The following applies: HEK293 cells transfected with kinase-NanoLuciferase fusion, 2 h at 37° C. A digest of the protocol:
as §1

Experiment [3] has as its target T3, AKT1 WT (Homo sapiens, UniProt P31749).
T3 construct: expressed in transfected cells; host or cells: HEK293
The experiment can be described thus: Live cell AKT1 WT target engagement by NanoBRET competitive probe displacement. The following applies: HEK293 cells transfected with kinase-NanoLuciferase fusion, 2 h at 37° C. A digest of the protocol: as §1

The subject of experiment [4] is LAPC4 prostate cancer cells. Description: Antiproliferative effects in LAPC4 cells (CellTiter Glo). The following applies: LAPC4 cells (AKT1 E17K allele), read-out: LAPC4 proliferation IC50. A digest of the protocol: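 LAPC4 cells were cultured in IMDM with 12% FBS and 1% P/S, seeded at 1,000 cells/well and exposed to compound dilutions in DMSO. After 72 h, intracellular ATP was measured by CellTiter Glo luminescence, and IC50 values came from a log(inhibitor) vs. response Hill fit.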
(In ATP-based viability assays light output follows the ATP content of the culture.)

pIC50: −log10 of the molar value. Read-outs that look alike come from different tables or passages of the source.

T1 sequence (P31749 whole entry E17K): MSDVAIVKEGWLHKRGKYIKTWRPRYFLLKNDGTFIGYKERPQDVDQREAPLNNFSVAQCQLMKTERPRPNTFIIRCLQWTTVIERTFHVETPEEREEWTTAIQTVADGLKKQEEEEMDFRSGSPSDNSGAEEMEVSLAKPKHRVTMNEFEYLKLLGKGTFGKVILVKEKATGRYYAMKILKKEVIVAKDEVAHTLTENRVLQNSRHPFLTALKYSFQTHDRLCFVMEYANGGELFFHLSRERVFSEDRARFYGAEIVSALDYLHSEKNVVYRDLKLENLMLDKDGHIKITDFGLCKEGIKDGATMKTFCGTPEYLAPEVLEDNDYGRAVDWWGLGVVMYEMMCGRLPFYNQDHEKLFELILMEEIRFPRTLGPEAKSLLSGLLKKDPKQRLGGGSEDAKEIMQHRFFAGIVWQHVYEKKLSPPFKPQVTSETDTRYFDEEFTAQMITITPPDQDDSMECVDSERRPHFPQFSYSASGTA
T3 sequence (P31749 whole entry): as the sequence (P31749 whole entry E17K) above, with K17E counted along it

Take `C=CC(=O)N1CCCC(N[C@H]2CCc3cc(-n4c(-c5cccnc5N)nc5ccc(-n6cccn6)nc54)ccc32)CC1` (single isomer, unassigned) [Example 82, 1-((*)-4-(((S)-5-(2-(2-aminopyridin-3-yl)-5-(1H-pyrazol-1-yl)-3H-imidazo[4,5-b]pyridin-3-yl)-2,3-dihydro-1H-inden-1-yl)amino)azepan-1-yl)prop-2-en-1-one]: the pIC50 in experiment [1] is 6.61; in experiment [2] it was 6.19; in experiment [3], 7.11; in experiment [4] (72 h), 6.25.

Turning to `C=CC(=O)N1CCC(N[C@@H]2c3ccc(-n4c(-c5cccnc5N)nc5ccc(-n6cccn6)nc54)cc3CC2F)C(C)C1` (single isomer, unassigned) [Example 288, 1-[(3*,4*)-4-{[(1R,2*)-5-[2-(2-aminopyridin-3-yl)-5-(pyrazol-1-yl)imidazo[4,5-b]pyridin-3-yl]-2-fluoro-2,3-dihydro-1H-inden-1-yl]amino}-3-methylpiperidin-1-yl]prop-2-en-1-one], the pIC50 in experiment [1] was 7.42; in experiment [2], 6.67; in experiment [3] it was 5.68; in experiment [4] (72 h), 5.82.

As to `C=CC(=O)N1CCN(NC2CCc3cc(-n4c(-c5cccnc5N)nc5ccc(-n6cccn6)nc54)ccc32)CC1` (racemic) [Example 77, 1-[4-({5-[2-(2-aminopyridin-3-yl)-5-(pyrazol-1-yl)imidazo[4,5-b]pyridin-3-yl]-2,3-dihydro-1H-inden-1-yl}amino)piperazin-1-yl]prop-2-en-1-one], the pIC50 was 7.06 in experiment [1]; 6.46 in experiment [2]; 7.75 in experiment [3]; 6.61 in experiment [4] (Homo sapiens, LAPC4, 72 h).

Turning to `C=CC(=O)N1CCC(N[C@H]2CCc3cc(-n4c(-c5ccccc5)nc5ccc(-n6cccn6)nc54)ccc32)CC1` [Example 152, (S)-1-(4-((5-(2-phenyl-5-(1H-pyrazol-1-yl)-3H-imidazo[4,5-b]pyridin-3-yl)-2,3-dihydro-1H-inden-1-yl)amino)piperidin-1-yl)prop-2-en-1-one], the pIC50 in experiment [1] was < 6.00; in experiment [2] it was < 5.00; in experiment [3], < 6.00; in experiment [4] (Homo sapiens, LAPC4, 72 h), < 5.00.

With `C=CC(=O)N1CCC(C(=O)N[C@H]2CCc3cc(-n4c(-c5cccnc5N)nc5ccc(-n6cccn6)nc54)ccc32)CC1` [Example 29, N-[(1S)-5-[2-(2-aminopyridin-3-yl)-5-(pyrazol-1-yl)imidazo[4,5-b]pyridin-3-yl]-2,3-dihydro-1H-inden-1-yl]-1-(prop-2-enoyl)piperidine-4-carboxamide], the pIC50 in experiment [1] is 7.09; in experiment [2], 6.60; in experiment [3], 7.30; in experiment [4] (Homo sapiens, LAPC4, 72 h) it was 6.67.

On to `C=CC(=O)N1CC2COC(C1)C2N[C@H]1CCc2cc(-n3c(-c4cccnc4N)nc4ccc(-n5cccn5)nc43)ccc21` (stereo partly drawn) [Example 224, 1-(8-{[(1S)-5-[2-(2-aminopyridin-3-yl)-5-(pyrazol-1-yl)imidazo[4,5-b]pyridin-3-yl]-2,3-dihydro-1H-inden-1-yl]amino}-6-oxa-3-azabicyclo[3.2.1]octan-3-yl)prop-2-en-1-one], for which the pIC50 is 7.15 in experiment [1]; 6.59 in experiment [2]; 5.91 in experiment [3]; 6.14 in experiment [4] (Homo sapiens, LAPC4, 72 h).

As to `C=CC(=O)N1CCC(N[C@@H]2c3ccc(-n4c(-c5cccnc5N)nc5ccc(-n6ccc(F)n6)nc54)cc3CC2F)C[C@H]1C` (single isomer, unassigned) [Example 275, 1-((2R,4*)-4-(((1R,2*)-5-(2-(2-aminopyridin-3-yl)-5-(3-fluoro-1H-pyrazol-1-yl)-3H-imidazo[4,5-b]pyridin-3-yl)-2-fluoro-2,3-dihydro-1H-inden-1-yl)amino)-2-methylpiperidin-1-yl)prop-2-en-1-one], the pIC50 was 7.08 in experiment [1], 7.09 in experiment [2], 5.58 in experiment [3] and 6.49 in experiment [4] (72 h).

As to `C=CC(=O)N1CCC(N[C@H]2CCc3cc(-n4c(-c5cccnc5N)nc5ccc(C6CC6)nc54)ccc32)CC1` [Example 85, (S)-1-(4-((5-(2-(2-aminopyridin-3-yl)-5-cyclopropyl-3H-imidazo[4,5-b]pyridin-3-yl)-2,3-dihydro-1H-inden-1-yl)amino)piperidin-1-yl)prop-2-en-1-one], the pIC50 in experiment [1] was 6.26; in experiment [2], 6.06; in experiment [3] it was 7.34; in experiment [4] (Homo sapiens, LAPC4, 72 h) it was 5.86.

Consider `C=CC(=O)N1CCC(N[C@H]2CCc3cc(-n4c(-c5cccc(F)c5)nc5ccc(-n6cccn6)nc54)ccc32)CC1` [Example 240, 1-(4-{[(1S)-5-[2-(3-fluorophenyl)-5-(pyrazol-1-yl)imidazo[4,5-b]pyridin-3-yl]-2,3-dihydro-1H-inden-1-yl]amino}piperidin-1-yl)prop-2-en-1-one], for which the pIC50 in experiment [1] was 7.37; in experiment [2], 6.51; in experiment [3], 5.60; in experiment [4] (Homo sapiens, LAPC4, 72 h), 5.98.

With `C=CC(=O)N1C[C@@H]2C[C@H]1CC2N[C@H]1CCc2cc(-n3c(-c4cccnc4N)nc4ccc(-n5cccn5)nc43)ccc21` (single isomer, unassigned) [Example 135, 1-[(1S,4S,5*)-5-{[(1S)-5-[2-(2-aminopyridin-3-yl)-5-(pyrazol-1-yl)imidazo[4,5-b]pyridin-3-yl]-2,3-dihydro-1H-inden-1-yl]amino}-2-azabicyclo[2.2.1]heptan-2-yl]prop-2-en-1-one], the pIC50 in experiment [1] was 6.82; in experiment [2], 6.32; in experiment [3], 7.65; in experiment [4] (Homo sapiens, LAPC4, 72 h), 6.52.

Turning to `C=CC(=O)N1CCCC(N[C@H]2CCc3cc(-n4c(-c5cccnc5N)nc5ccc(-n6cccn6)nc54)ccc32)C1` (single isomer, unassigned) [Example 125, 1-[(3*)-3-{[(1S)-5-[2-(2-aminopyridin-3-yl)-5-(pyrazol-1-yl)imidazo[4,5-b]pyridin-3-yl]-2,3-dihydro-1H-inden-1-yl]amino}piperidin-1-yl]prop-2-en-1-one], the pIC50 in experiment [1] is 6.04; in experiment [2], 5.48; in experiment [3], 6.53; in experiment [4] (72 h), 5.68.

Consider `C=CC(=O)N1CCC(c2cn([C@H]3CCc4cc(-n5c(-c6cccnc6N)nc6ccc(-n7cccn7)nc65)ccc43)nn2)CC1` [Example 169, 1-(4-{1-[(1S)-5-[2-(2-aminopyridin-3-yl)-5-(pyrazol-1-yl)imidazo[4,5-b]pyridin-3-yl]-2,3-dihydro-1H-inden-1-yl]-1,2,3-triazol-4-yl}piperidin-1-yl)prop-2-en-1-one], for which the pIC50 in experiment [1] is 7.27; in experiment [2], 6.94; in experiment [3], 6.23; in experiment [4] (Homo sapiens, LAPC4, 72 h), 6.25.

On to `C=CC(=O)N1CCC(N[C@@H]2c3ccc(-n4c(-c5cccnc5N)nc5ccc(-n6ccc(OC)n6)nc54)cc3CC2F)CC1` (single isomer, unassigned) [Example 286, 1-(4-(((1R,2*)-5-(2-(2-aminopyridin-3-yl)-5-(3-methoxy-1H-pyrazol-1-yl)-3H-imidazo[4,5-b]pyridin-3-yl)-2-fluoro-2,3-dihydro-1H-inden-1-yl)amino)piperidin-1-yl)prop-2-en-1-one], for which the pIC50 is 7.97 in experiment [1]; 7.44 in experiment [2]; 6.56 in experiment [3]; 6.91 in experiment [4] (Homo sapiens, LAPC4, 72 h).

In the case of `C=CC(=O)N1CCC(N[C@H]2CCc3cc(-n4c(-c5cccnc5N)nc5ccc(-n6cccn6)nc54)ccc32)C(O)C1` (single isomer, unassigned) [Example 142, 1-[(3*,4*)-4-{[(1S)-5-[2-(2-aminopyridin-3-yl)-5-(pyrazol-1-yl)imidazo[4,5-b]pyridin-3-yl]-2,3-dihydro-1H-inden-1-yl]amino}-3-hydroxypiperidin-1-yl]prop-2-en-1-one], the pIC50 in experiment [1] was < 6.00; in experiment [2], < 5.00; in experiment [3], < 6.00; in experiment [4] (72 h), 5.46.

Turning to `C=CC(=O)N1CCC(N[C@@H]2c3ccc(-n4c(-c5ccccc5F)nc5ccc(-n6cccn6)nc54)cc3CC2F)CC1` (single isomer, unassigned) [Example 300, 1-(4-(((1R,2*)-2-fluoro-5-(2-(2-fluorophenyl)-5-(1H-pyrazol-1-yl)-3H-imidazo[4,5-b]pyridin-3-yl)-2,3-dihydro-1H-inden-1-yl)amino)piperidin-1-yl)prop-2-en-1-one], the pIC50 was 8.04 in experiment [1], 7.46 in experiment [2], 5.63 in experiment [3] and 6.41 in experiment [4] (72 h).

On to `C=CC(=O)N1CCC(N[C@H]2CCc3cc(-n4c(-c5cccnc5N)nc5ccc(-n6nccn6)nc54)ccc32)C[C@H]1C` (single isomer, unassigned) [Example 261, 1-[(2R,4*)-4-{[(1S)-5-[2-(2-aminopyridin-3-yl)-5-(1,2,3-triazol-2-yl)imidazo[4,5-b]pyridin-3-yl]-2,3-dihydro-1H-inden-1-yl]amino}-2-methylpiperidin-1-yl]prop-2-en-1-one], for which the pIC50 was 7.36 in experiment [1], 6.87 in experiment [2], 6.26 in experiment [3] and 6.64 in experiment [4] (72 h).
